Values quoted from earlier work as cited in article PMC11949389 (Polish Journal of Microbiology, 2025).
≈ marks a conversion by molar mass, not a printed value.

How the values were obtained:
[1] = tested on: carbapenem-resistant Klebsiella pneumoniae (CRKP) strains; conditions: with meropenem, ref Köse (2022)
[2] = tested on: Escherichia coli; conditions: Escherichia coli; ref Owen et al. 2019; Sayout et al. 2020; Noumi et al. 2023
[3] = tested on: Salmonella Typhimurium; conditions: ref Giovagnoni et al. (2020)
[4] = tested on: staphylococcal isolates; conditions: ref Sim et al. 2019
[5] = tested on: Klebsiella pneumoniae; conditions: ref Sayout et al. 2020, de Souza et al. 2021, Kwiatkowski et al. 2022
[6] = tested on: TetK efflux pump; conditions: S. aureus, ref Sousa Silveira et al. (2020)
[7] = tested on: Mupirocin-susceptible Staphylococcus aureus; conditions: ref Kwiatkowski et al. 2019
[8] = tested on: carbapenem and polymyxin-resistant Klebsiella pneumoniae; conditions: ref de Souza et al. (2021)
[9] = tested on: Candida albicans; conditions: ref Shaban et al. 2020
[10] = tested on: HIV-1; conditions: ref Mediouni et al. (2020)
[11] = tested on: Campylobacter jejuni; conditions: C. jejuni; ref Šimunović et al. (2020)
[12] = tested on: Candida albicans; conditions: Candida albicans; ref Sharifzadeh et al. 2019; Iraji et al. 2020; Shaban et al. 2020; Stringaro et al. 2022; Biernasiuk et al. 2022
[13] = tested on: Mupirocin-resistant Staphylococcus aureus; conditions: ref Kwiatkowski et al. 2019
[14] = tested on: carbapenem-resistant E. coli and P. aeruginosa; conditions: ref Owen et al. (2019)
[15] = tested on: Enterococcus sp.; conditions: ref Caballero Gómez et al. 2022
[16] = tested on: Staphylococcus aureus Pseudomonas fluorescens; conditions: ref Wang et al. 2020b
[17] = tested on: Candida glabrata
[18] = tested on: Staphylococcus pseudintermedius
[19] = tested on: Candida auris
[20] = tested on: Staphylococcus sp.; conditions: ref Caballero Gómez et al. 2022
[21] = tested on: Pseudomonas sp.; conditions: ref Caballero Gómez et al. 2022
[22] = tested on: Ciprofloxacin-resistant Pseudomonas aeruginosa; conditions: Ciprofloxacin-resistant Pseudomonas aeruginosa; ref Owen et al. 2019
[23] = tested on: Candida species; conditions: ref Stringaro et al. (2022)
[24] = tested on: various microorganisms; conditions: across various microorganisms; ref Owen et al. (2019)
[25] = tested on: Malassezia pachydermatis; conditions: ref Schlemmer et al. 2019, Sim et al. 2019
[26] = tested on: Campylobacter jejuni
[27] = tested on: Vancomycin-sensitive Enterococcus (VSE)
[28] = tested on: amphotericin B-resistant C. albicans; conditions: varying among Candida isolates; ref Touil et al. (2020)
[29] = tested on: Methicillin-resistant Staphylococcus aureus; conditions: Methicillin-resistant Staphylococcus aureus; ref Owen et al. 2019
[30] = tested on: Candida tropicalis; conditions: Candida tropicalis; ref Iraji et al. 2020; Stringaro et al. 2022
[31] = tested on: carbapenem and polymyxin-resistant Klebsiella pneumoniae; conditions: murine models, compared to polymyxin B treatment; ref de Souza et al. (2021)
[32] = tested on: Extended-spectrum beta-lactamases Escherichia coli; conditions: ESBL Escherichia coli; ref Khan et al. 2020
[33] = tested on: C. albicans and co-isolated bacteria; conditions: carvacrol combined with cuminaldehyde; ref Touil et al. (2020)
[34] = tested on: Methicillin-susceptible Staphylococcus aureus; conditions: ref Owen et al. 2019
[35] = tested on: Acinetobacter baumannii; conditions: combined with ciprofloxacin, ref Aleksic Sabo et al. (2021)
[36] = tested on: Mycobacterium biofilms, including Mycobacterium abscessus and Mycobacterium fortuitum; conditions: even at sub-MIC concentrations; ref Marini et al. (2019)
[37] = tested on: β-haemolytic Streptococcus spp.; conditions: ref Sim et al. 2019
[38] = Candida auris, ref Shaban et al. 2020

Q: Which results are given for Cc1ccc(C(C)C)cc1O [Carvacrol]?
A: FICI ([1]; checkerboard assays, CRKP): 0.5; CRKP strains with synergy [1]: 8 of 25; MIC/Sensitivity [2]: 297.4356 mg/mL (≈ 1980 mM); MIC [3]: 1870 µM (≈ 281 µg/mL); MIC90 [4]: 0.146 to 0.2 mg/mL; MIC/Sensitivity [5]: 0.13 to 1.91 mg/mL; efflux pump inhibition [6]: did not act as efflux pump inhibitors; MIC/Sensitivity [7]: 0.95 mg/mL (≈ 6.32 mM); MIC [8]: 0.13 to 0.26 mg/mL; Mechanisms of action [9]: • Reduced proteinase production; IC50 ([10]; HIV-1): 16 µM; reduction of viral infectivity ([10]; pretreatment of HIV): 60.6%; efflux pump inhibition [11]: weaker effect; MIC/Sensitivity [12]: 0.04375 to 0.25 mg/mL; MIC/Sensitivity [13]: 0.48 mg/mL (≈ 3.2 mM); activity [14]: ineffective; MIC/Sensitivity [15]: 0.1 to 0.45 mg/mL; Mechanisms of action [16]: • Targeted extracellular polymeric substances • Disruption of biofilm structures; MIC/Sensitivity ([17]; Candida glabrata, ref Sharifzadeh et al. 2019, Iraji et al. 2020, Biernasiuk et al. 2022, Stringaro et al. 2022): 0.0625 to 0.195 mg/mL; FICI ([17]; with voriconazole, C. glabrata, ref Sharifzadeh et al. (2019)): 0.412–0.625; MIC90 ([18]; S. pseudintermedius, ref Sim et al. (2019)): 0.146 mg/mL (≈ 0.972 mM); MIC/Sensitivity ([18]; Staphylococcus pseudintermedius, ref Sim et al. 2019): 0.146 to 0.292 mg/mL; median MIC ([19]; C. auris, ref Shaban et al. (2020)): 0.125 mg/mL; MIC [19, 38]: 0.125 mg/mL (≈ 0.832 mM); MIC/Sensitivity [19, 38]: 0.125 mg/mL (≈ 0.832 mM); MIC/Sensitivity [20]: 0.2 to 0.4 mg/mL; MIC/Sensitivity [21]: 0.1 to 0.4 mg/mL; MIC/Sensitivity [22]: 4749.9564 mg/mL (≈ 31600 mM); MIC [23]: 0.0975 to 0.195 mg/mL; MIC [24]: 990 to 15810 µM; MIC/Sensitivity [25]: 0.01 to 0.585 mg/mL; MIC/Sensitivity ([26]; Campylobacter jejuni, ref Šimunović et al. 2020): 0.03125 mg/mL (≈ 0.208 mM); MIC ([26]; ref Šimunović et al. (2020)): 0.03125 mg/mL (≈ 0.208 mM); MIC/Sensitivity ([27]; Vancomycin-sensitive Enterococcus (VSE), ref Owen et al. 2019): 0.59337 mg/mL (≈ 3.95 mM); reduction in vancomycin’s MIC ([27]; binary combinations with vancomycin, VSE, ref Owen et al. (2020)): four to eight-fold reduction; MIC [28]: 250–1,000 μg/ml; MIC/Sensitivity [29]: 148.7178 mg/mL (≈ 990 mM); MIC/Sensitivity [30]: 0.0975 mg/mL (≈ 0.649 mM); bacterial counts in infections [31]: reduced bacterial counts; survival [31]: significantly improved survival; Mechanisms of action [32]: • Disintegration of bacterial cell membranes • Elevation of reactive oxygen species levels • Protected macrophage cells from bacterial invasion • Increased the release of K+ ions, ATP, and cellular DNA • Anti-biofilm properties; MIC in combination [33]: 0.06 to 0.25 mg/mL; MIC/Sensitivity [34]: 297.4356 mg/mL (≈ 1980 mM); FICI [35]: 0.25–0.32; effect on biofilms [36]: inhibited biofilm formation and disrupted pre-formed biofilms; MIC/Sensitivity ([37]; β-haemolytic Streptococcus spp.): 0.146 to 0.292 mg/mL; MIC90 ([37]; β-hemolytic Streptococcus): 0.292 to 0.4 mg/mL
